Assay results published in PubChem BioAssay AID1259407 (Chemical Carcinogenesis Research Information System (CCRIS), 2018).
Activity calls are given as the source filed them. How the calls were made is not given here.

Test system: CCRIS mutagenicity, Ames/micronucleus/aberration tests
Assay: CCRIS mutagenicity studies
[1] = Test System: AMES SALMONELLA TYPHIMURIUM, Strain/Indicator: TA98, Metabolic Activation: NONE, Method: STANDARD PLATE
[2] = Test System: AMES SALMONELLA TYPHIMURIUM, Strain/Indicator: TA98, Metabolic Activation: RAT, LIVER, S-9, Method: STANDARD PLATE
[3] = Test System: AMES SALMONELLA TYPHIMURIUM, Strain/Indicator: TA100, Metabolic Activation: NONE, Method: PREINCUBATION
[4] = Test System: AMES SALMONELLA TYPHIMURIUM, Strain/Indicator: TA100, Metabolic Activation: NONE, Method: STANDARD PLATE
[5] = Test System: AMES SALMONELLA TYPHIMURIUM, Strain/Indicator: TA98, Metabolic Activation: RAT, LIVER, S-9, AROCLOR 1254, Method: STANDARD PLATE
[6] = Test System: AMES SALMONELLA TYPHIMURIUM, Strain/Indicator: TA100, Metabolic Activation: RAT, LIVER, S-9, AROCLOR 1254, Method: STANDARD PLATE

CNC(=O)CSP(=S)(OC)OC
mutagenic call (End Point: In vitro chromosomal aberrations, Test System: Human lymphocytes, Metabolic Activation: None): active; positive (structural changes and ploidy) | mutagenic call (Test System: AMES SALMONELLA TYPHIMURIUM, Strain/Indicator: G46, Metabolic Activation: HOST-MEDIATED, Method: STANDARD PLATE): active; positive | mutagenic call (Test System: AMES SALMONELLA TYPHIMURIUM, Strain/Indicator: TA97A, Metabolic Activation: NONE, Method: STANDARD PLATE): inactive; negative | mutagenic call (Test System: AMES SALMONELLA TYPHIMURIUM, Strain/Indicator: TA97A, Metabolic Activation: PLANT, HOMOGENATE, S-14, Method: STANDARD PLATE): inactive; negative | mutagenic call (Test System: AMES SALMONELLA TYPHIMURIUM, Strain/Indicator: TA97A, Metabolic Activation: S-9, Method: STANDARD PLATE): inactive; negative | mutagenic call [1]: inactive; negative | mutagenic call (Test System: AMES SALMONELLA TYPHIMURIUM, Strain/Indicator: TA98, Metabolic Activation: PLANT, HOMOGENATE, S-14, Method: STANDARD PLATE): inactive; negative | mutagenic call [2]: inactive; negative | mutagenic call (Test System: AMES SALMONELLA TYPHIMURIUM, Strain/Indicator: TA98, Metabolic Activation: S-9, NADPH GENERATING SYSTEM, Method: STANDARD PLATE): inactive; negative | mutagenic call (Test System: AMES SALMONELLA TYPHIMURIUM, Strain/Indicator: TA98, Metabolic Activation: S-9, Method: STANDARD PLATE): inactive; negative | mutagenic call (Test System: AMES SALMONELLA TYPHIMURIUM, Strain/Indicator: TA98, Metabolic Activation: WHEAT SEEDLING, S-14, Method: STANDARD PLATE): inactive; negative | mutagenic call [3]: active; positive | mutagenic call [4]: inactive; negative | mutagenic call (Test System: AMES SALMONELLA TYPHIMURIUM, Strain/Indicator: TA100, Metabolic Activation: PLANT, HOMOGENATE, S-14, Method: STANDARD PLATE): inactive; negative | mutagenic call (Test System: AMES SALMONELLA TYPHIMURIUM, Strain/Indicator: TA100, Metabolic Activation: S-9, Method: STANDARD PLATE): inactive; negative | mutagenic call (Test System: AMES SALMONELLA TYPHIMURIUM, Strain/Indicator: TA100, Metabolic Activation: S-9 MIX, Method: STANDARD PLATE): active; positive | mutagenic call (Test System: AMES SALMONELLA TYPHIMURIUM, Strain/Indicator: TA102, Metabolic Activation: NONE, Method: STANDARD PLATE): inactive; negative | mutagenic call (Test System: AMES SALMONELLA TYPHIMURIUM, Strain/Indicator: TA102, Metabolic Activation: RAT, LIVER, S-9, Method: STANDARD PLATE): inactive; negative | mutagenic call (Test System: AMES SALMONELLA TYPHIMURIUM, Strain/Indicator: TA102, Metabolic Activation: S-9, NADPH GENERATING SYSTEM, Method: STANDARD PLATE): inactive; negative | mutagenic call (Test System: AMES SALMONELLA TYPHIMURIUM, Strain/Indicator: TA102, Metabolic Activation: WHEAT SEEDLING, S-14, Method: STANDARD PLATE): inactive; negative | mutagenic call (Test System: AMES SALMONELLA TYPHIMURIUM, Strain/Indicator: TA1535, Metabolic Activation: NONE, Method: STANDARD PLATE): inactive; negative | mutagenic call (Test System: AMES SALMONELLA TYPHIMURIUM, Strain/Indicator: TA1535, Metabolic Activation: PLANT, HOMOGENATE, S-14, Method: STANDARD PLATE): inactive; negative | mutagenic call (Test System: AMES SALMONELLA TYPHIMURIUM, Strain/Indicator: TA1535, Metabolic Activation: RAT, LIVER, S-9, Method: STANDARD PLATE): inactive; negative | mutagenic call (Test System: AMES SALMONELLA TYPHIMURIUM, Strain/Indicator: TA1535, Metabolic Activation: S-9, NADPH GENERATING SYSTEM, Method: STANDARD PLATE): inactive; negative | mutagenic call (Test System: AMES SALMONELLA TYPHIMURIUM, Strain/Indicator: TA1535, Metabolic Activation: S-9, Method: STANDARD PLATE): inactive; negative | mutagenic call (Test System: AMES SALMONELLA TYPHIMURIUM, Strain/Indicator: TA1535, Metabolic Activation: WHEAT SEEDLING, S-14, Method: STANDARD PLATE): inactive; negative | mutagenic call (Test System: AMES SALMONELLA TYPHIMURIUM, Strain/Indicator: TA1537, Metabolic Activation: NONE, Method: STANDARD PLATE): inactive; negative | mutagenic call (Test System: AMES SALMONELLA TYPHIMURIUM, Strain/Indicator: TA1537, Metabolic Activation: S-9, NADPH GENERATING SYSTEM, Method: STANDARD PLATE): inactive; negative

CNC(=O)N(O)C(C)=O
mutagenic call [1]: active; positive | mutagenic call [2]: active; positive | mutagenic call [4]: active; positive

NCCCCCCCCCCCC(=O)O
mutagenic call (Test System: AMES SALMONELLA TYPHIMURIUM, Strain/Indicator: TA98, Metabolic Activation: NONE, Method: PREINCUBATION): inactive; negative | mutagenic call (Test System: AMES SALMONELLA TYPHIMURIUM, Strain/Indicator: TA98, Metabolic Activation: RAT LIVER S-9, PHENOBARBITAL AND BETA-NAPHTHOFLAVONE, Method: PREINCUBATION): inactive; negative | mutagenic call [3]: inactive; negative | mutagenic call (Test System: AMES SALMONELLA TYPHIMURIUM, Strain/Indicator: TA100, Metabolic Activation: RAT LIVER S-9, PHENOBARBITAL AND BETA-NAPHTHOFLAVONE, Method: PREINCUBATION): inactive; negative | mutagenic call (Test System: AMES SALMONELLA TYPHIMURIUM, Strain/Indicator: TA1535, Metabolic Activation: NONE, Method: PREINCUBATION): inactive; negative | mutagenic call (Test System: AMES SALMONELLA TYPHIMURIUM, Strain/Indicator: TA1535, Metabolic Activation: RAT LIVER S-9, PHENOBARBITAL AND BETA-NAPHTHOFLAVONE, Method: PREINCUBATION): inactive; negative | mutagenic call (Test System: AMES SALMONELLA TYPHIMURIUM, Strain/Indicator: TA1537, Metabolic Activation: NONE, Method: PREINCUBATION): inactive; negative | mutagenic call (Test System: AMES SALMONELLA TYPHIMURIUM, Strain/Indicator: TA1537, Metabolic Activation: RAT LIVER S-9, PHENOBARBITAL AND BETA-NAPHTHOFLAVONE, Method: PREINCUBATION): inactive; negative | mutagenic call (Test System: E.COLI, Strain/Indicator: WP2UVRA/PKM101, Metabolic Activation: NONE, Method: PREINCUBATION): inactive; negative | mutagenic call (Test System: E.COLI, Strain/Indicator: WP2UVRA/PKM101, Metabolic Activation: RAT LIVER S-9, PHENOBARBITAL AND BETA-NAPHTHOFLAVONE, Method: PREINCUBATION): inactive; negative

Cc1ccc2[nH]c3c(C)ccc(C)c3c2c1
mutagenic call [1]: inactive; negative | mutagenic call (Test System: AMES SALMONELLA TYPHIMURIUM, Strain/Indicator: TA98, Metabolic Activation: RAT LIVER S-9, AROCLOR 1254, Method: STANDARD PLATE): active; positive | mutagenic call [4]: inactive; negative | mutagenic call (Test System: AMES SALMONELLA TYPHIMURIUM, Strain/Indicator: TA100, Metabolic Activation: RAT LIVER S-9, AROCLOR 1254, Method: STANDARD PLATE): inactive; negative

CC1(O)CC2CCC1(C)C2(C)C (stereo not drawn)
mutagenic call [1]: inactive; negative | mutagenic call [5]: inactive; negative | mutagenic call [4]: inactive; negative | mutagenic call [6]: inactive; negative

O=CN(O)c1cccc(Cl)c1
mutagenic call [1]: inactive; negative | mutagenic call [5]: inactive; negative | mutagenic call [4]: inactive; negative | mutagenic call [6]: inactive; negative
